Like-named read-outs stand apart in the source and are kept apart here.
Tests used:
[1] = molecular target: GSK3b (GST-full length GSK3b) (Homo sapiens (Human), UniProt P49841); test: GSK3b TR-FRET kinase assay; assay type: biochemical
Procedure, shortened: (§1)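 Readout: anti-pSer641 Tb antibody/streptavidin-d2 signal after 60 min, expressed as 665/615 ratio and fitted versus log concentration for IC50. Enzyme: 1 nM GST-GSK3 (α or β), compound-preincubated 30 min. Conditions: pH 7.5 Tris buffer with MgCl2, DTT, BSA; ATP at 4 or 2 μM, or 1 mM; 100 min.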

[2] = molecular target: GSK3α (GST-full length GSK3α) (Homo sapiens (Human), UniProt P49840); test: GSK3α TR-FRET kinase assay; assay type: biochemical
GSK3α (GST-full length GSK3α), sequence (P49840 whole entry): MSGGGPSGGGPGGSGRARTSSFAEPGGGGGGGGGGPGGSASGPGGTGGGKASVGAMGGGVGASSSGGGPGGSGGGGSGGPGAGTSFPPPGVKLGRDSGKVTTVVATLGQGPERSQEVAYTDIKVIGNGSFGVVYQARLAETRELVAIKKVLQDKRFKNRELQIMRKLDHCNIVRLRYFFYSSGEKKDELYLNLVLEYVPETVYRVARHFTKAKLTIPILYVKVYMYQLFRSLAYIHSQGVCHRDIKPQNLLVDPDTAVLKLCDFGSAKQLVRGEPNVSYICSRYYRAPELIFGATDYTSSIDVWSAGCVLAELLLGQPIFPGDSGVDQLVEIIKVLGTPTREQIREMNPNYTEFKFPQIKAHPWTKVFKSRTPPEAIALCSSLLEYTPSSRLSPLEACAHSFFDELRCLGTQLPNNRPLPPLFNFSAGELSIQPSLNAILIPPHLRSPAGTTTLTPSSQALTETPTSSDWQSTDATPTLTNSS
Procedure, shortened: as §1

[3] = 1 nM GSK3b, 2 μM ATP, 30 minute preincubation, Table 16, read-out: GSK3-B TR-FRET BIOCHEMICAL (TR-FRET)
[4] = 1 nM GSK3α, 4 μM ATP, 30 minute preincubation, Table 16, read-out: GSK3-A TR-FRET BIOCHEMICAL (TR-FRET)
[5] = 1 nM GSK3b, 2 μM ATP, 30 minute preincubation, geometric mean, read-out: GSK3-B TR-FRET BIOCHEMICAL (TR-FRET), GMean, IC50
[6] = 1 nM GSK3α, 4 μM ATP, 30 minute preincubation, geometric mean, read-out: GSK3-A TR-FRET BIOCHEMICAL (TR-FRET), GMean, IC50
[7] = 1 nM GSK3b, 2 μM ATP, 30 minute preincubation, read-out: GSK3-B TR-FRET BIOCHEMICAL (TR-FRET), IC50
[8] = read-out: GSK3-B (TR-FRET 1 mM ATP), GMean, IC50, 1 mM ATP, geometric mean
[9] = 1 nM GSK3α, 4 μM ATP, 30 minute preincubation, read-out: GSK3-A TR-FRET BIOCHEMICAL (TR-FRET), IC50
[10] = read-out: GSK3-A (TR-FRET 1 mM ATP), GMean, IC50, 1 mM ATP, geometric mean
[11] = 1 nM GSK3b, 2 μM ATP, 30 minute preincubation, Table 16, read-out: GSK3-B TR-FRET BIOCHEMICAL (TR-FRET), IC50
[12] = 1 nM GSK3α, 4 μM ATP, 30 minute preincubation, Table 16, read-out: GSK3-A TR-FRET BIOCHEMICAL (TR-FRET), IC50

GSK3b (GST-full length GSK3b), sequence (P49841 whole entry): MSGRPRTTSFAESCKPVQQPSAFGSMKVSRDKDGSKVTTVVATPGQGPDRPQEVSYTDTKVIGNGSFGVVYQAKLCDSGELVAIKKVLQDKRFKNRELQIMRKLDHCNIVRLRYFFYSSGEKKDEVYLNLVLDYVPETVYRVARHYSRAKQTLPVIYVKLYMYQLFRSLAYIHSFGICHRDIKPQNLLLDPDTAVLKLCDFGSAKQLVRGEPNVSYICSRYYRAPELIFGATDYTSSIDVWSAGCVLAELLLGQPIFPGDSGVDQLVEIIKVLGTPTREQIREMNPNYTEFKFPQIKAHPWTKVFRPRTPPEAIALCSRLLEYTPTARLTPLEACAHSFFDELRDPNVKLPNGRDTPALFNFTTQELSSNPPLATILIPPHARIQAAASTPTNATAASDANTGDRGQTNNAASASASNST

Row | SMILES | IC50 [1, 5] [nM] | IC50 [2, 6] [nM] | further results
1 | CC1CCCC12C1=C(CC(C)(C)CC1=O)Nc1n[nH]cc12 (stereo not drawn) [Compound 826765] | – | – | IC50 [1, 3]: 1000 to 5000 nM; IC50 [2, 4]: 100 to 1000 nM
2 | CC[C@]1(c2ccccc2)C2=C(CC(C)(C)[C@@H](F)C2=O)Nc2n[nH]cc21 [Compound 826766] | 100 to 1000 | 100 to 1000 | –
3 | CC[C@]1(c2ccccc2)C2=C(CC(C)(C)[C@H](F)C2=O)Nc2n[nH]cc21 [Compound 826767] | > 5000 | > 5000 | –
4 | CC[C@@]1(c2ccccc2)C2=C(CC(C)(C)[C@@H](F)C2=O)Nc2n[nH]cc21 [Compound 826768] | 100 to 1000 | ≤ 100 | –
5 | CC[C@@]1(c2ccccc2)C2=C(CC(C)(C)[C@H](F)C2=O)Nc2n[nH]cc21 [Compound 826769] | > 5000 | > 5000 | –
6 | CCC1(c2cccc(C(F)(F)F)c2)C2=C(CC(C)(C)N(C)C2=O)Nc2n[nH]cc21 (stereo not drawn) [Compound 826790] | – | – | IC50 [1, 7]: ≤ 100 nM; IC50 [1, 8]: 1000 to 5000 nM; IC50 [2, 9]: ≤ 100 nM; IC50 [2, 10]: 100 to 1000 nM
7 | CCC1(c2cccc(C(F)(F)F)c2)C2=C(CC(C)(C)N(C)C2=O)Nc2n[nH]cc21 (stereo not drawn) [Compound 826791] | – | – | IC50 [1, 7]: 1000 to 5000 nM; IC50 [2, 9]: 100 to 1000 nM
8 | CCC1(c2cccc(Br)c2)C2=C(CC(C)CC2=O)Nc2n[nH]c(C(F)(F)F)c21 (stereo not drawn) [Compound 828849] | 100 to 1000 | 100 to 1000 | –
9 | CCC1(c2ccccc2)C2=C(CCC(C)(C)C2=O)Nc2n[nH]cc21 (stereo not drawn) [Compound 835310] | 1000 to 5000 | 100 to 1000 | –
10 | CCC1(c2cccc(Br)c2)C2=C(CC(C)(C)C(F)C2=O)Nc2n[nH]cc21 (stereo not drawn) [Compound 835312] | > 5000 | > 5000 | –
11 | CC[C@]1(c2cccc(Br)c2)C2=C(CC(C)(C)[C@@H](F)C2=O)Nc2n[nH]cc21 [Compound 835313] | > 5000 | > 5000 | –
12 | CCC1(c2cccc(Br)c2)C2=C(CC(C)(C)C(F)C2=O)Nc2n[nH]cc21 (stereo not drawn) [Compound 835314] | 100 to 1000 | ≤ 100 | –
13 | CCC1(c2cccc(Br)c2)C2=C(CC(C)(C)C(F)C2=O)Nc2n[nH]cc21 (stereo not drawn) [Compound 835315] | ≤ 100 | ≤ 100 | IC50 [1, 8]: 1000 to 5000 nM; IC50 [2, 10]: 100 to 1000 nM
14 | CCC1(c2cccc(-c3ccnc(C)c3)c2)C2=C(CC(C)(C)CC2=O)Nc2n[nH]cc21 (stereo not drawn) [Compound 840857] | 100 to 1000 | ≤ 100 | –
15 | CCC1(COC)C2=C(CC(C)(C)CC2=O)Nc2n[nH]cc21 (stereo not drawn) [Compound 841866] | – | – | IC50 [1, 11]: > 5000 nM; IC50 [2, 12]: > 5000 nM
16 | CN1CCC2(C1)C1=C(CC(C)(C)CC1=O)Nc1n[nH]cc12 (stereo not drawn) [Compound 841867] | – | – | IC50 [1, 11]: > 5000 nM; IC50 [2, 12]: > 5000 nM
17 | CCC1(c2cccc(N(C)c3ccncc3)c2)C2=C(CC(C)(C)CC2=O)Nc2n[nH]cc21 (stereo not drawn) [Compound 853910] | 1000 to 5000 | 100 to 1000 | –
18 | CCC1(c2cccc(-n3ccnc3)c2)C2=C(CC(C)(C)CC2=O)Nc2n[nH]cc21 (stereo not drawn) [Compound 854926] | 100 to 1000 | ≤ 100 | –
19 | CC1(C)CC(=O)C2=C(C1)Nc1n[nH]c(CCC(F)(F)F)c1C2(C)c1ccccc1 (stereo not drawn) [Compound 856948] | > 5000 | > 5000 | –
20 | CC[C@@]1(c2cccc(C(F)(F)F)c2)C2=C(CCN(C(C)C)C2=O)Nc2n[nH]cc21 [Compound 857336] | – | – | IC50 [1, 7]: 100 to 1000 nM; IC50 [2, 9]: ≤ 100 nM
21 | CC[C@]1(c2cccc(C(F)(F)F)c2)C2=C(CCN(C(C)C)C2=O)Nc2n[nH]cc21 [Compound 857362] | – | – | IC50 [1, 7]: > 5000 nM; IC50 [2, 9]: > 5000 nM
22 | CCC1(c2ccccc2)C2=C(Nc3n[nH]cc31)C1CCC1C2=O (stereo not drawn) [Compound 861716] | – | – | IC50 [1, 11]: > 5000 nM; IC50 [2, 12]: 1000 to 5000 nM
23 | CCC1(c2ccccc2)C2=C(CSC(C)(C)C2=O)Nc2n[nH]cc21 (stereo not drawn) [Compound 862028] | – | – | IC50 [1, 7]: 1000 to 5000 nM; IC50 [2, 9]: 100 to 1000 nM

Row | SMILES | IC50 [1, 5] [nM] | IC50 [2, 6] [nM] | further results
24 | CCC1(c2cccc(-c3ccnc(C)c3)c2)C2=C(CC(C)(C)CC2=O)Nc2n[nH]cc21 (stereo not drawn) [Compound 865170] | > 5000 | 1000 to 5000 | –
25 | CCC1(c2cccc(N3CCCC3=O)c2)C2=C(CC(C)(C)CC2=O)Nc2n[nH]cc21 (stereo not drawn) [Compound 865171] | 100 to 1000 | ≤ 100 | –
26 | CC1(C)CC(=O)C2=C(C1)Nc1n[nH]cc1C21CCC(C(F)(F)F)CC1 (stereo not drawn) [Compound 865193] | – | – | IC50 [1, 3]: ≤ 100 nM; IC50 ([1]; GSK3-B (TR-FRET 1 mM ATP), GMean, IC50, 1 mM ATP, geometric mean): 1000 to 5000 nM; IC50 [2, 4]: ≤ 100 nM; IC50 ([2]; GSK3-A (TR-FRET 1 mM ATP), GMean, IC50, 1 mM ATP, geometric mean): 100 to 1000 nM
27 | CCC1(c2cccc(CN(C)C(C)=O)c2)C2=C(CC(C)(C)CC2=O)Nc2n[nH]cc21 (stereo not drawn) [Compound 865194] | 1000 to 5000 | 100 to 1000 | –
28 | CCC1(c2cccc(CN(C)C(=O)C(C)C)c2)C2=C(CC(C)(C)CC2=O)Nc2n[nH]cc21 (stereo not drawn) [Compound 865195] | > 5000 | 100 to 1000 | –
29 | CCC1(c2cccc(CN(C)C(=O)COC)c2)C2=C(CC(C)(C)CC2=O)Nc2n[nH]cc21 (stereo not drawn) [Compound 865196] | > 5000 | 100 to 1000 | –
30 | CC[C@]1(c2ccccc2)C2=C(Nc3n[nH]cc31)[C@@H](C)C[C@H](C)C2=O [Compound 865198] | 1000 to 5000 | 100 to 1000 | –
31 | CC[C@@]1(c2ccccc2)C2=C(Nc3n[nH]cc31)[C@H](C)C[C@@H](C)C2=O [Compound 865199] | > 5000 | 1000 to 5000 | –
32 | CC[C@]1(c2ccccc2)C2=C(Nc3n[nH]cc31)[C@H](C)C[C@@H](C)C2=O [Compound 865201] | 100 to 1000 | ≤ 100 | –
33 | CC[C@@]1(c2ccccc2)C2=C(Nc3n[nH]cc31)[C@@H](C)C[C@H](C)C2=O [Compound 865202] | > 5000 | > 5000 | –
34 | CCC1(c2cccc(C(F)(F)F)c2)C2=C(CCNC2=O)Nc2n[nH]cc21 (stereo not drawn) [Compound 870263] | – | – | IC50 [1, 7]: > 5000 nM; IC50 [2, 9]: 100 to 1000 nM
35 | CCC1(c2cccc(N(C)c3ccncc3)c2)C2=C(CC(C)(C)CC2=O)Nc2n[nH]cc21 (stereo not drawn) [Compound 874261] | > 5000 | 100 to 1000 | –
36 | CCC1(c2cccc(N(C)c3ccccn3)c2)C2=C(CC(C)(C)CC2=O)Nc2n[nH]cc21 (stereo not drawn) [Compound 874294] | 100 to 1000 | ≤ 100 | –
37 | CCC1(c2cccc(N(C)c3cccnc3)c2)C2=C(CC(C)(C)CC2=O)Nc2n[nH]cc21 (stereo not drawn) [Compound 874298] | ≤ 100 | ≤ 100 | –
38 | CCC1(c2cccc(N(C)c3cccnc3)c2)C2=C(CC(C)(C)CC2=O)Nc2n[nH]cc21 (stereo not drawn) [Compound 874299] | > 5000 | 100 to 1000 | –
39 | CCC1(c2cccc(N3CCOCC3)c2)C2=C(CC(C)(C)CC2=O)Nc2n[nH]c(C)c21 (stereo not drawn) [Compound 874312] | ≤ 100 | ≤ 100 | –
40 | CCC1(COCc2ccccc2)C2=C(CC(C)(C)CC2=O)Nc2n[nH]cc21 (stereo not drawn) [Compound 874313] | – | – | IC50 [1, 11]: 1000 to 5000 nM; IC50 [2, 12]: 1000 to 5000 nM
41 | CCC1(c2cccc(-c3ccncc3)c2)C2=C(CC(C)CC2=O)Nc2n[nH]cc21 (stereo not drawn) [Compound 874315] | > 5000 | 1000 to 5000 | –
42 | CCC1(c2cccc(-c3ccncc3)c2)C2=C(CC(C)CC2=O)Nc2n[nH]cc21 (stereo not drawn) [Compound 874316] | 1000 to 5000 | 100 to 1000 | –
43 | C[C@@H]1CCC[C@]12C1=C(CC(C)(C)CC1=O)Nc1n[nH]cc12 [Compound 874319] | – | – | IC50 [1, 11]: 1000 to 5000 nM; IC50 [2, 12]: 1000 to 5000 nM
44 | C[C@H]1CCC[C@@]12C1=C(CC(C)(C)CC1=O)Nc1n[nH]cc12 [Compound 874320] | – | – | IC50 [1, 11]: 1000 to 5000 nM; IC50 [2, 12]: 1000 to 5000 nM
45 | CC1(C)CC(=O)C2=C(C1)Nc1n[nH]c(CCC(F)(F)F)c1C21CCc2c(F)cccc21 (stereo not drawn) [Compound 874323] | 1000 to 5000 | 1000 to 5000 | –

Reference: patent US20250313563A1, “GLYCOGEN SYNTHASE KINASE 3 INHIBITORS AND USES THEREOF” (The Broad Institute, Inc., priority 2022, published 2025)
